Key:
Format in all cases: physicochemical
[1] = 1-MCP release with pump vs without pump in sealed apple storage room; settings: box fan on vs off, first 240 minutes, 0.5 kg activated carbon bed, sealed room 2-6° C.
Description: This example describes the effect of directing gaseous fluid flow through a delivery material on the rate of release of active ingredients. Specifically, gaseous 1-MCP release via pump-driven gas flow was compared to release in the absence of pump-driven flow.
(§1) A pump in the form of a 20″×20″ box fan was placed inside of a 33,264 cubic foot apple storage room kept at a temperature between 2-6° C., with the fan facing up and elevated several inches from the ground to allow space for air to enter the fan from below. The device was assembled by placing a metal air filter housing and a 20″×20″ air filter (Nordic Pure® Part 20201.8-3) on top of the fan, to which was added a 0.5 kg bed of a particulate delivery material in the form of activated carbon powder associated with an activated ingredient in the form of 1-MCP. Another identical 20″×20″ air filter was placed on top of the 1-MCP-loaded activated carbon and secured with a clamp. The apple storage room was vacated by the user and sealed before the fan was turned on. At the same time, in an adjacent, identical apple storage room, a second, identical device described above was set up with a 0.5 kg bed of activated carbon powder associated with 1-MCP. However, the fan of this second device was not turned on.

[2] = 1-MCP release rate as a function of air speed; settings: five air speeds and 0 m/s, 0.5 kg activated carbon powder, sealed room of approximately 30,000 cubic feet
Description: This example describes the release rate of an active ingredient from a delivery material as a function of gaseous fluid flow rate through the delivery material. Specifically, the rate of gaseous 1-MCP release via pump-driven air flow was measured as a function of the air flow rate.
In a sealed apple storage room of approximately 30,000 cubic feet, 0.5 kg of a particulate delivery material in the form of activated carbon powder associated with an activated ingredient in the form of 1-MCP was held in front of pumps in the form of fans with known air speeds for greater than 2 hours each. The fan type and geometry was varied to access various air speeds. The concentration of 1-MCP in the atmosphere of the sealed apple storage room was monitored using measurements from a detector making use of the C2H4 sensor described in Example 1, and release rates were calculated at five different air speeds, as well as at a flow rate of 0 m/s.

[3] = 1-MCP release, dry forced-air (duct fan) vs water-based release in sealed apple storage room; settings: sealed room 2-6° C.
Description: This example describes a comparison of active ingredient release profiles and rates using a device and system of this disclosure as compared to an existing technique. Specifically, gaseous 1-MCP release via pump-driven gaseous fluid flow was compared to water-based release of 1-MCP.
A pump in the form of a duct fan was placed inside of a 30,624 cubic foot apple storage room kept between 2-6° C. The fan was placed facing up onto two iron bars to allow space for air to enter below the fan. The device was assembled by placing a 12″ mesh sieve on top of the duct fan, to which was added a 1 kg bed of a particulate delivery material in the form of activated carbon powder associated with an activated ingredient in the form of 1-MCP. The sieve and delivery material was then contained by placing a pair of nylon stockings over the opening of the sieve and sealing it all with duct tape. The room was vacated by the user and sealed before the fan was turned on. […] At the same time, a comparative experiment was performed by placing, in an adjacent identical apple storage room, a bucket containing 12 L of distilled water and 4 aerators (each of which produced 0.024 cubic feet per min, 0.096 cubic feet per minute total). […] The 1-MCP levels in the sealed apple storage room for the second, comparative experiment was measured in the same manner as described above.

[4] = 1-MCP buildup and retention in sealed vs unsealed apple storage room, box fan device; settings: 2-6° C., after 15 hours of running the fan, 0.5 kg activated carbon bed
Description: This example describes release of an active ingredient into an enclosure using a device and system as described in this disclosure. Specifically, gaseous 1-MCP buildup and retention in an enclosure in the form of a sealed apple room was compared to buildup and retention in an unsealed apple storage room.
as §1, with “an activate” for “an activated”, “on. […] The C2H4 sensor was calibrated for 1-MCP by comparison with gas chromatography readings, and reported values in millivolts which were subtracted from baseline readings for” for “on. At”, “the detector and then converted via” for “the same time, in an adjacent, identical apple storage room, a second, identical device described above was set up with a 0.5 kg bed of activated carbon powder associated with 1-MCP. However,”, “the calibration curve to concentration measurements. […]” for “the fan of this second device was not turned on.”

For `CC1=CC1` [1-MCP, 1-methylcyclopropene], which “1-MCP release with pump compared to no pump” value [1] is on record?
The value was “released at a greater rate and in greater amounts”.

What about the “1-MCP release rate as a function of air speed” value [2] of the same compound?
Its value is “greater rate when faster air speeds were used”.

What about the “duration of sustained release” value ([3]; dry forced-air release method, duct fan) of the same compound?
Its value is > 170 min.

And the “increase in rate of release, dry forced-air release vs water-based release” value ([3]; initial slope of concentration profiles, 1 kg activated carbon bed)?
The value was 16 fold.

What about the “measured 1-MCP level in room” value ([4]; sealed apple storage room) of the same compound?
The value was “greater 1-MCP level”.

What about the “measured 1-MCP level in room” value ([4]; unsealed apple storage room (portal door open)) of the same compound?
The value was “significant level of 1-MCP”.

— patent US20240251807A1, “SYSTEMS AND METHODS FOR DISPERSING ACTIVE INGREDIENTS” (Hazel Technologies, Inc., priority 2021, published 2024)
